Tests used:
[1] = tested on: pygmy rabbits (Brachylagus idahoensis); test: Two-choice feeding trial: single monoterpene diet vs monoterpene mixture diet; format: in vivo; details: for percentage of single monoterpene in the diet relative to monoterpene mixture: pygmy rabbits
[2] = tested on: mountain cottontails (Sylvilagus nuttallii); test: as above; format: in vivo
digestive enzyme = details: in a generalist more than in a specialist avian folivore; ref Kohl et al. 2015; cited from earlier work

Structure (SMILES)	percentage of single monoterpene in the diet relative to monoterpene mixture [1]	amount of single monoterpene diet consumed relative to monoterpene mixture [2]	proportion consumed by pygmy rabbits relative to cottontails ([1]; pygmy rabbits vs mountain cottontails)	amount of monoterpene mixture consumed relative to single monoterpene diet [2]	effect on digestive enzyme activity (digestive enzyme)
CC12CCC(CC1)C(C)(C)O2 [1,8-cineole]	twice	24 times	–	–	–
C=C1C2CCC(C2)C1(C)C (centres unmarked) [camphene]	–	more than five times	–	–	–
CC12CCC(CC1=O)C2(C)C (centres unmarked) [camphor]	twice	–	twice	twice	reduced digestive enzyme activity
C=C1CCC2CC1C2(C)C (stereo not drawn) [β-pinene]	–	–	–	three times	–
